According to patent US20110160223A1, “NMDA Receptor Antagonists for the Treatment of Neuropsychiatric Disorders” (priority 2008, published 2011):
Read-outs that look alike come from different tables or passages of the source.

Experiments:
[1] = target: NMDA receptor (NR1 + NR2 subunits) (Rattus norvegicus, UniProt P35439+Q00960); experiment: Two electrode voltage clamp recording from Xenopus laevis oocytes (pH dependence of NMDA antagonism); assay type: cell-based; details: Table 27; pH not stated; read-out: Rat IC50
Chain of NMDA receptor (NR1 + NR2 subunits) (Q00960 27-1482, other chains not shown): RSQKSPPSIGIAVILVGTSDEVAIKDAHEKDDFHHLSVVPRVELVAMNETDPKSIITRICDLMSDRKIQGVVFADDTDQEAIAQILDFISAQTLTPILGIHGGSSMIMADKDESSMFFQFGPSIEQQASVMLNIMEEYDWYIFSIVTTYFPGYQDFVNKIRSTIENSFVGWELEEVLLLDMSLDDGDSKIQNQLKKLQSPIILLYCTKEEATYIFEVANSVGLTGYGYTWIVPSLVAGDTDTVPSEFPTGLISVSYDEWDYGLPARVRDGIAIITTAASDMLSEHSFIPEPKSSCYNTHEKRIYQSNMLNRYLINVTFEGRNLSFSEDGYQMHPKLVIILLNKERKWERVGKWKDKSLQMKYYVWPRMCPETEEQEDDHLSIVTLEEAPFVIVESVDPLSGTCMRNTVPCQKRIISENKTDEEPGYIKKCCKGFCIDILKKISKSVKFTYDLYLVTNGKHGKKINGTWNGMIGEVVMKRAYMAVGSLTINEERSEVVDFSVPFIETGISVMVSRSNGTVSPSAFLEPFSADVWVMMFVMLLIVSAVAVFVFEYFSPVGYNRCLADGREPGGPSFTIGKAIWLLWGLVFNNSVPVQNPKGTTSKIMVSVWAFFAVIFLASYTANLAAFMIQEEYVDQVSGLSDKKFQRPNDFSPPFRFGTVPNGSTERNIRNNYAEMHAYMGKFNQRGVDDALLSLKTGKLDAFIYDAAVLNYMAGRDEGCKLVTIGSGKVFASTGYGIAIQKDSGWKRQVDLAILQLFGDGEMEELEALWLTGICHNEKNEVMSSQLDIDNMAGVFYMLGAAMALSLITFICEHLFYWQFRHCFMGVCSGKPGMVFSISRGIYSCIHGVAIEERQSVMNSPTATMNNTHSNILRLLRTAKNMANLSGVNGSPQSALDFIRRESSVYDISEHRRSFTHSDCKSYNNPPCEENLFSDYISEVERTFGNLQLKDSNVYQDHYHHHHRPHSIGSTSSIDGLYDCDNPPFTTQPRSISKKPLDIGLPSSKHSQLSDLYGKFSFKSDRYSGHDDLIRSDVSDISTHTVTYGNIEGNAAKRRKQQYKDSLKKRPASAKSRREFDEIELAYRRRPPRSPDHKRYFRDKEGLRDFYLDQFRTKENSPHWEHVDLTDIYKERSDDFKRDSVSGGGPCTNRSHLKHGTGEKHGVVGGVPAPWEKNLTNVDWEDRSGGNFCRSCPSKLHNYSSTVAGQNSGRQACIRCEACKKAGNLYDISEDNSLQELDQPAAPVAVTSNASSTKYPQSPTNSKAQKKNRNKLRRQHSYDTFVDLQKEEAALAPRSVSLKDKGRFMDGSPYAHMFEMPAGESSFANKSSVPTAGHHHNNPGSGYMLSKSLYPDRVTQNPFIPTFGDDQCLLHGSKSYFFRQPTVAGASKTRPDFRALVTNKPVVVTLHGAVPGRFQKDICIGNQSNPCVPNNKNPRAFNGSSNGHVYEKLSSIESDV
Outline: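 Oocytes expressing rat NR1/NR2 were held at −40 mV at 23 °C, 2–7 days after injection, in Ba²⁺ saline with pH adjusted and 10 µM EDTA. Compounds at 4–8 concentrations were co-applied with 50 µM glutamate and 30 µM glycine. Percent of the initial response was leak-corrected, pooled over 3–6 frogs and fitted with a Hill equation (minimum ≥0) to give IC50.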

CD1 mice = experiment: Forced swim model (depression result); assay type: in vivo; details: i.p.
Method: CD1 mice were adminstered a compounds shown in Table 11, desipramine, Ro 25-6981 or a control vehicle and subjected to a forced swim test. All compounds were administered as intraperitoneal injections. Animals were placed into a beaker (15 cm diameter) of water held at 25° C. with a depth of 15 cm 30 min after compound administration. Behavior was videotaped for 6 minutes from the side of the beaker and scored subsequently for struggling behavior. Results were analyzed by one-way ANOVA and post-hoc Bonferroni tests. Total immobility time refers to the time that the animal spends floating or engaged in minimal activity to keep afloat for at least 3 seconds. Subtle movements of feet, tail or head required to maintain the eyes, ears, and nose above the surface of the water were excluded as immobility. The video-tapes were scored by investigators unfamiliar with the treatments of the mice.
For the data in FIG. 1, test compounds were tested at a dose of 10 mg/ kg. Desipramine was tested at a dose of 20 mg/kg. Ro 25-6981 was tested at a dose of 5 mg/kg. Number of CD1 mice tested per groups was 8-10. ANOVA: F(11,98)=3.638, p<0.01. *=p<0.05 compared to vehicle. +=p<0.05 compared to desipramine.
For the data in FIG. 2, compounds NP10075 and NP10076 were tested at doses of 5 mg/kg, 7.5 mg/kg and 10 mg/kg; desipramine was tested at a dose of 20 mg/kg; and Ro 25-6981 was tested at a dose of 5 mg/kg. Number of CD1 mice tested per group was 8-10. *=p<0.05, **=p<0.01 ANOVA, post-hoc Bonferroni from control.

[2] = Plasma and brain exposure assessment; assay type: in vivo, Mice; details: mouse, ip; for concentration at 30 min: calculated from the brain:plasma ratio determined by LC-MS/MS
Method: Mice were administered a dose of test compound (10 mg/kg by i.p.) and blood and brain tissue samples collected at the indicated times post drug administration (n=3-5). Blood samples were collected in K-EDTA tubes and centrifuged for ten minutes immediately after collection, and the plasma was stored at −80° C. until analysis. Brains were immediately removed from the skull and the meninges and cerebellum removed, rinsed with ice-cold PBS, weighed and then homogenized at 4° C. in 2-3 volumes of 50 mM potassium phosphate buffer (pH 7.4) and stored at −80° C. until analysis. Plasma and brain homogenates were extracted by the addition of 5 volumes of cold acetonitrile, mixed well by vortexing and centrifuged at 4000 rpm for 15 minutes. The supernatant fractions were analyzed by LC-MS/MS operating in multiple reaction monitoring mode (MRM) and analyzed for the parent compound to determine the plasma or brain concentration. Internal standards were added to calibrate each sample. An eight point standard curve was prepared similarly in naïve plasma and brain for each compound of interest. Based on occupancy studies of other NR2B antagonists in rodents (CP-101,606, Ro25-6981, and Merck20j), plus plasma levels achieved in Preskorn et al., brain exposures for the test compounds were consistent with “anticipated levels” required for efficacy.

[3] = system: Salmonella typhimurium TA98, TA102; experiment: Ames test for genotoxicity; details: 8 conc., 1.5-5000 μg/plate; +/− S9 both; strains TA98, TA102
Method: The Ames test determines the ability of a compound to reverse an introduced mutation in two strains of Salmonella typhimurium (selected from TA98, TA100, TA15345, TA1537, and TA102). (See for example Maron, D. M. and Ames, B. N., Mutat. Res., 1983, 113, 173-215.) Compounds were tested at eight dose levels 1.5, 5, 15, 50, 150, 500, 1500, and 5000 μg/plate in both the presence and absence of S-9 microsomal fraction in two bacterial strains (TA98, TA102). After incubation at 37° the number of revertant colonies was compared with the number of spontaneous revertants on negative (vehicle) plates. Positive control plates containing a known mutagen active in each of the strains in the presence of S-9 extract (2-aminoanthracene at 1-5 ug/plate) were also run.

mice = experiment: Open field activity test; assay type: in vivo; details: 10 mg/kg, intraperitoneal
Method: Spontaneous activity was evaluated in an automated Omnitech Digiscan apparatus (AccuScan Instruments, Columbus, Ohio). Animals were given vehicle, imipramine, or a dose of a test compound. All compounds were administered as intraperitoneal injections. Activity was summated at 5 minute intervals over the 90 min period of testing. At 60 minutes, the mice were injected with 10 mg/kg NP10075, 10 mg/kg NP10076 or a vehicle. Locomotion was measured in terms of the total distance traveled (horizontal activity). Results were analyzed by one-way ANOVA and post-hoc Bonferroni tests.

[4] = plasma (free, unbound), mice 10 mg/kg i.p., 30 minute, based on % free fraction measured in protein binding study, read-out: Free Plasma
[5] = plasma (free, unbound), mice 10 mg/kg i.p., 30 minute, based on % free fraction, read-out: Free Plasma
[6] = plasma, mice dosed 10 mg/kg, i.p., 30 minute time point, LC-MS/MS, read-out: Plasma

IC50 [1] [nM]	concentration at 30 min ([2]; mice 10 mg/kg i.p.) [nM]	concentration at 30 minute [2, 4] [ng/mL]	concentration at 30 minute [2, 5] [nM]	concentration at 30 minute [2, 6] [ng/mL]	Structure (SMILES)	Depression Result (CD1 mice)	Genotoxicity (Ames) Result [3]	mouse open field activity (total distance traveled) (mice)
60	48	61	145	679	O=C(COc1ccc2[nH]c(=O)oc2c1)N1CCN(c2ccc(Cl)c(Cl)c2)CC1 [NP10068]	active		
72	64	34	94	377	O=C1N(C[C@H](O)COc2ccc(O)cc2)CCN1c1ccc(Cl)cc1 [NP10076]	active		

Structure (SMILES)	IC50 [1] [nM]	concentration at 30 min ([2]; mice 10 mg/kg i.p.) [nM]	concentration at 30 minute [2, 4] [ng/mL]	concentration at 30 minute [2, 5] [nM]	concentration at 30 minute [2, 6] [ng/mL]	Depression Result (CD1 mice)	Genotoxicity (Ames) Result [3]	mouse open field activity (total distance traveled) (mice)
NC(=O)Nc1ccc(OC[C@@H](O)CN2CCN(c3ccc(Cl)cc3)CC2)cc1 [NP10075]	108	130	220	542	3140	active	No positive	Neither NP10075 or NP10076 altered mouse open field activity
